Laboratory results published in PubChem BioAssay (NCI).
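Test compounds were applied to cells in 96-well plates for 48 hours at 5 doses. GI50 = concentration required for 50% inhibition of growth. At the TGI there is no net growth.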

Tests used:
Test in all cases: DTP human tumour cell line panel, 48 h
SK-MEL-5 melanoma = system: SK-MEL-5 melanoma
UO-31 renal = system: UO-31 renal
A549 NSCLC = system: A549 NSCLC
MALME-3M melanoma = system: MALME-3M melanoma
SN12C renal = system: SN12C renal
NCI-H23 lung = system: NCI-H23 lung
SF-268 CNS = system: SF-268 CNS
OVCAR-8 ovarian = system: OVCAR-8 ovarian
SK-OV-3 ovarian = system: SK-OV-3 ovarian
NCI-H522 lung = system: NCI-H522 lung
MDA-MB-231 breast = system: MDA-MB-231 breast
786-0 renal = system: 786-0 renal
HCC-2998 colon = system: HCC-2998 colon
UACC-62 melanoma = system: UACC-62 melanoma
SW-620 colon = system: SW-620 colon
COLO 205 colon = system: COLO 205 colon
PC-3 prostate = system: PC-3 prostate
MOLT-4 leukemia = system: MOLT-4 leukemia
NCI-H226 lung = system: NCI-H226 lung
SK-MEL-2 melanoma = system: SK-MEL-2 melanoma
HOP-62 NSCLC = system: HOP-62 NSCLC
M14 melanoma = system: M14 melanoma
ACHN renal = system: ACHN renal
IGROV1 ovarian = system: IGROV1 ovarian
MDA-MB-435 = system: MDA-MB-435
SK-MEL-28 melanoma = system: SK-MEL-28 melanoma
HS 578T breast = system: HS 578T breast
LOX IMVI melanoma = system: LOX IMVI melanoma
T-47D breast = system: T-47D breast
SNB-19 CNS = system: SNB-19 CNS
MCF7 breast = system: MCF7 breast
KM12 colon = system: KM12 colon
RPMI-8226 leukemia = system: RPMI-8226 leukemia
DU-145 prostate = system: DU-145 prostate
SR leukemia = system: SR leukemia
CCRF-CEM leukemia = system: CCRF-CEM leukemia
SNB-75 CNS = system: SNB-75 CNS
TK-10 renal = system: TK-10 renal
HL-60(TB) leukemia = system: HL-60(TB) leukemia
OVCAR-3 ovarian = system: OVCAR-3 ovarian
SF-295 CNS = system: SF-295 CNS
OVCAR-5 ovarian = system: OVCAR-5 ovarian
HCT-15 colon = system: HCT-15 colon
NCI-H460 lung = system: NCI-H460 lung
SF-539 CNS = system: SF-539 CNS
CAKI-1 renal = system: CAKI-1 renal
BT-549 breast = system: BT-549 breast
U251 CNS = system: U251 CNS
K-562 leukemia = system: K-562 leukemia
HOP-92 NSCLC = system: HOP-92 NSCLC
HT29 colon = system: HT29 colon
HCT-116 colon = system: HCT-116 colon
EKVX NSCLC = system: EKVX NSCLC
OVCAR-4 ovarian = system: OVCAR-4 ovarian
A498 renal = system: A498 renal
UACC-257 melanoma = system: UACC-257 melanoma
NCI/ADR-RES ovarian = system: NCI/ADR-RES ovarian

`O=C(CCCCCCNC(=O)C(O)(O)C(F)(F)F)Nc1ccc(Cl)cc1` gave a GI50 (SK-MEL-5 melanoma) of 5.07 µM, a TGI (SK-MEL-5 melanoma) of 10 µM and a GI50 (UO-31 renal) of 5.25 µM. For the same molecule, the TGI (UO-31 renal) was 23.7 µM, the GI50 (A549 NSCLC) was 9.56 µM and the TGI (A549 NSCLC) was over 36.8 µM. The GI50 (MALME-3M melanoma) was 2.83 µM, the TGI (MALME-3M melanoma) was 22 µM and the GI50 (SN12C renal) was 7.66 µM. It also gave a TGI (SN12C renal) of 35.6 µM, a GI50 (NCI-H23 lung) of 7.08 µM and a TGI (NCI-H23 lung) of 34.2 µM. It also gave a GI50 (SF-268 CNS) of 7.27 µM, a TGI (SF-268 CNS) of 24.5 µM and a GI50 (OVCAR-8 ovarian) of 3.5 µM. For the same molecule, the TGI (OVCAR-8 ovarian) was over 36.8 µM, the GI50 (SK-OV-3 ovarian) was 5.56 µM and the TGI (SK-OV-3 ovarian) was 26 µM. It also gave a GI50 (NCI-H522 lung) of 4.68 µM, a TGI (NCI-H522 lung) of 19.8 µM and a GI50 (MDA-MB-231 breast) of 5.2 µM. It also gave a TGI (MDA-MB-231 breast) of 27.3 µM, a GI50 (786-0 renal) of 9.48 µM and a TGI (786-0 renal) of over 36.8 µM. It also gave a GI50 (HCC-2998 colon) of 7.62 µM, a TGI (HCC-2998 colon) of 22 µM and a GI50 (UACC-62 melanoma) of 3.19 µM. It also gave a TGI (UACC-62 melanoma) of 9.28 µM, a GI50 (SW-620 colon) of 4.02 µM and a TGI (SW-620 colon) of 16.3 µM. It also gave a GI50 (COLO 205 colon) of 5.83 µM, a TGI (COLO 205 colon) of 15.1 µM and a GI50 (PC-3 prostate) of 5.01 µM. The TGI (PC-3 prostate) was over 36.8 µM, the GI50 (MOLT-4 leukemia) was 2.87 µM and the TGI (MOLT-4 leukemia) was over 36.8 µM. The GI50 (NCI-H226 lung) was 9.49 µM, the TGI (NCI-H226 lung) was over 36.8 µM and the GI50 (SK-MEL-2 melanoma) was 5.41 µM. The TGI (SK-MEL-2 melanoma) was 17.6 µM, the GI50 (HOP-62 NSCLC) was 7.75 µM and the TGI (HOP-62 NSCLC) was over 36.8 µM. The GI50 (M14 melanoma) was 9.99 µM, the TGI (M14 melanoma) was over 36.8 µM and the GI50 (ACHN renal) was 6.01 µM. For the same molecule, the TGI (ACHN renal) was 28.2 µM, the GI50 (IGROV1 ovarian) was 5.11 µM and the TGI (IGROV1 ovarian) was 19.8 µM. The GI50 (MDA-MB-435) was 7.13 µM, the TGI (MDA-MB-435) was over 36.8 µM and the GI50 (SK-MEL-28 melanoma) was 5.4 µM. For the same molecule, the TGI (SK-MEL-28 melanoma) was 34.3 µM, the GI50 (HS 578T breast) was 3.68 µM and the TGI (HS 578T breast) was 30.1 µM. For the same molecule, the GI50 (LOX IMVI melanoma) was 4.07 µM, the TGI (LOX IMVI melanoma) was 8.94 µM and the GI50 (T-47D breast) was 5.76 µM. For the same molecule, the TGI (T-47D breast) was over 36.8 µM, the GI50 (SNB-19 CNS) was 7.56 µM and the TGI (SNB-19 CNS) was 30.9 µM. It also gave a GI50 (MCF7 breast) of 10.8 µM, a TGI (MCF7 breast) of over 36.8 µM and a GI50 (KM12 colon) of 7.92 µM. The TGI (KM12 colon) was over 36.8 µM, the GI50 (RPMI-8226 leukemia) was 3.46 µM and the TGI (RPMI-8226 leukemia) was over 36.8 µM. For the same molecule, the GI50 (DU-145 prostate) was 8.13 µM, the TGI (DU-145 prostate) was over 36.8 µM and the GI50 (SR leukemia) was 2.44 µM. It also gave a TGI (SR leukemia) of over 36.8 µM, a GI50 (CCRF-CEM leukemia) of 2.73 µM and a TGI (CCRF-CEM leukemia) of over 36.8 µM. For the same molecule, the GI50 (SNB-75 CNS) was 8.76 µM, the TGI (SNB-75 CNS) was over 36.8 µM and the GI50 (TK-10 renal) was 1.55 µM. For the same molecule, the TGI (TK-10 renal) was over 36.8 µM, the GI50 (HL-60(TB) leukemia) was 3.64 µM and the TGI (HL-60(TB) leukemia) was over 36.8 µM. It also gave a GI50 (OVCAR-3 ovarian) of 3.83 µM, a TGI (OVCAR-3 ovarian) of 10.1 µM and a GI50 (SF-295 CNS) of 5.77 µM. It also gave a TGI (SF-295 CNS) of 13.1 µM, a GI50 (OVCAR-5 ovarian) of 4.26 µM and a TGI (OVCAR-5 ovarian) of 20.9 µM. The GI50 (HCT-15 colon) was 8.18 µM, the TGI (HCT-15 colon) was over 36.8 µM and the GI50 (NCI-H460 lung) was 4.59 µM. The TGI (NCI-H460 lung) was over 36.8 µM, the GI50 (SF-539 CNS) was 8.85 µM and the TGI (SF-539 CNS) was over 36.8 µM. It also gave a GI50 (CAKI-1 renal) of 8.98 µM, a TGI (CAKI-1 renal) of over 36.8 µM and a GI50 (BT-549 breast) of 6.72 µM. The TGI (BT-549 breast) was 35 µM, the GI50 (U251 CNS) was 4.91 µM and the TGI (U251 CNS) was 21 µM. For the same molecule, the GI50 (K-562 leukemia) was 1.82 µM, the TGI (K-562 leukemia) was over 36.8 µM and the GI50 (HOP-92 NSCLC) was 1.06 µM. The TGI (HOP-92 NSCLC) was 8.39 µM, the GI50 (HT29 colon) was 6.28 µM and the TGI (HT29 colon) was over 36.8 µM. The GI50 (HCT-116 colon) was 1.59 µM, the TGI (HCT-116 colon) was over 36.8 µM and the GI50 (EKVX NSCLC) was 11.2 µM. For the same molecule, the TGI (EKVX NSCLC) was over 36.8 µM, the GI50 (OVCAR-4 ovarian) was 15.7 µM and the TGI (OVCAR-4 ovarian) was over 36.8 µM. It also gave a GI50 (A498 renal) of 1.38 µM, a TGI (A498 renal) of 12.5 µM and a GI50 (UACC-257 melanoma) of 7.85 µM. The TGI (UACC-257 melanoma) was over 36.8 µM, the GI50 (NCI/ADR-RES ovarian) was 6.16 µM and the TGI (NCI/ADR-RES ovarian) was 28.7 µM.
